Key:
ENPP-1 [1] = molecular target: T1, ENPP-1 (Homo sapiens, UniProt P22413); assay: ENPP-1 enzyme assay with cGAMP substrate; type: biochemical; conditions: 200 pM ENPP-1, 10 μM substrate 2′3′-cGAMP, pH 7.4, 37° C., 30 minutes, Transcreener AMP2/GMP2 kit; average IC50
T1 construct: purchased Biovendor RD172124100
T1 sequence (P22413 1-925): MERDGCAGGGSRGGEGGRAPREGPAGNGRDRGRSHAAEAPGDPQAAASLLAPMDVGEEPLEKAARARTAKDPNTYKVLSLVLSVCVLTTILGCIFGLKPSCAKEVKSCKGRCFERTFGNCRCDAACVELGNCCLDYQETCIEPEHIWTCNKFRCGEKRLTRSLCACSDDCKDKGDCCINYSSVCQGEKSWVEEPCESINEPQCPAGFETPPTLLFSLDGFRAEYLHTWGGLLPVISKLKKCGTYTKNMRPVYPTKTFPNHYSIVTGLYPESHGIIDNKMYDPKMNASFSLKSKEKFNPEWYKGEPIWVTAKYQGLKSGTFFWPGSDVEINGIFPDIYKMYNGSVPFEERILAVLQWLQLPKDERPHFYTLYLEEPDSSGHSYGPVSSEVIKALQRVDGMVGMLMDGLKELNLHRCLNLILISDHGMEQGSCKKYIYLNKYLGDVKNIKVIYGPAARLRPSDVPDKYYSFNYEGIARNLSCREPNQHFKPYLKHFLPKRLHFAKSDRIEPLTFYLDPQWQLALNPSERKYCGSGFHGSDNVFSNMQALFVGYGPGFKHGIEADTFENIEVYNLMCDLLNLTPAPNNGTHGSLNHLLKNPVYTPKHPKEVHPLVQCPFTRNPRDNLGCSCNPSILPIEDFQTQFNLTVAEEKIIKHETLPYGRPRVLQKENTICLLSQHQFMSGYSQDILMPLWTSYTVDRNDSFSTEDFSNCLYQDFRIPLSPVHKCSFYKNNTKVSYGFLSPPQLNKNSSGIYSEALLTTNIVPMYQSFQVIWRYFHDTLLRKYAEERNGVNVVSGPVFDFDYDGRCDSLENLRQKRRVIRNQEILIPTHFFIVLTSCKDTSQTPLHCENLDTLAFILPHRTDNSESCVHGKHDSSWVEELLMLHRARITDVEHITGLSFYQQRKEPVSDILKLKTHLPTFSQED
Method: 2′3′-cGAMP is a natural substrate specifically hydrolyzed by ENPP-1, and produces 5′-adenosine monophosphate (AMP) and 5′-guanosine monophosphate (GMP). AMP and GMP produced from the reaction are monitored for ENPP-1 enzyme activity through an AMP^2/GMP^2 ENPP-1 Assay kit (Bellbrook Labs, catalog number 3015).
First, the reaction mixture contains 25 mM Tris-HCl (pH 7.4), 5 mM MgCl2, 0.01% Brij-35, and 1% DMSO. Serially diluted ENPP-1 inhibitors (test compound concentrations ranging from 10 μM to 0.5 nM) are reacted with 200 pM ENPP-1 (Biovendor, catalog number RD172124100) and 10 μM substrate 2′3′-cGAMP at 37° C. for 30 minutes. All assays include a DMSO control without ENPP-1 inhibitor that provides maximal AMP and GMP production. After 30 minutes of this reaction, AMP and GMP production is detected as a measure of ENPP-1 enzymatic activity using the Transcreener® AMP^2/GMP^2 ENPP-1 Assay kit. The detection reagent is a reagent containing 16 nM AMP^2/GMP^2 Antibody-Tb, 25 mM Tris-HCl and 60.1 nM AMP/GMP HiLyte647 Tracer, which is added by 5 μl, mixed well, and incubated at 25° C. for 2 hours.
(§1) The […] signal is measured using a SPARK Cyto plate reader (Tecan). Inhibition (%) is calculated using the following formula: (Max 615:665 ratio-615:665 ratio)/Max 615:665 ratio×100%. % residual ENPP-1 enzyme activity versus IC50 values for ENPP-1 inhibitor concentrations were determined by fitting inhibition curves using the 4-parameter method of GraphPad Prism® software [GraphPad version 9.3.1 for Windows, GraphPad Software, La Jolla California USA, www.graphpad.com].

ENPP-1 [2] = molecular target: T1, ENPP-1; assay: ENPP-1 enzyme assay with pNP-TMP substrate; type: biochemical; conditions: 12.5 ng ENPP-1, 720 μM substrate pNP-TMP, pH 9.0, 37° C., 60 minutes, absorbance 405 nm; average IC50
Method: In order to measure the ENPP-1 inhibitory activity of the compounds according to the present disclosure, the following tests were performed.
ENPP-1 hydrolyzes a variety of substrates, including phosphodiester bonds of nucleotides and nucleotide sugars and pyrophosphate bonds of nucleotides and nucleotide sugars. p-Nitrophenyl 5′-thymidine monophosphate (p-Nph-5′-TMP) is an artificial substrate for 5′-adenosine monophosphate (AMP), which is hydrolyzed by the human recombinant ENPP-1 enzyme. In the above reaction, ENPP-1 enzymatic activity is monitored through the formation of yellow p-nitrophenolate, which absorbs at 405 nm.
First, the reaction mixture contains 100 mM Tris-HCl (pH 9.0), 150 mM NaCl, […], and 1% DMSO. Serially diluted ENPP-1 inhibitors (test compound concentrations ranging from 10 μM to 0.5 nM) are reacted with 12.5 ng of ENPP-1 (Biovendor, catalog number RD172124100) and 720 μM substrate pNP-TMP at 37° C. for 60 minutes. All assays include a DMSO control without ENPP-1 inhibitor that gives maximum absorbance.
as §1, with “After 60 minutes of this reaction, the” for “The”, “an Epoch™ Microplate Spectrophotometer (BioTek Instruments Inc.).” for “a SPARK Cyto plate reader (Tecan).”, “Sample OD405 nm/Max OD405 nm×100%.” for “(Max 615:665 ratio-615:665 ratio)/Max 615:665 ratio×100%.”

`COc1ccc2c(c1)c1c(n2Cc2ccc(S(N)(=O)=O)cc2)CCCN1` [Compound 38, 4-((8-methoxy-1,2,3,4-tetrahydro-5H-pyrido[3,2-b]indol-5-yl)methyl)benzenesulfonamide] was tested. Which IC50 (ENPP-1 [1]) did it give?
Its IC50 is less than 1000 nM.

What about the IC50 (ENPP-1 [2]) of the same compound?
The IC50 was less than 1000 nM.

What does the source list for `COc1ccc2c(c1)c1c(n2Cc2ccc(S(N)(=O)=O)cc2)CCNC1=O` [Compound 41, 4-((8-methoxy-1-oxo-1,2,3,4-tetrahydro-5H-pyrido[4,3-b]indol-5-yl)methyl)benzene sulfonamide]?
IC50 (ENPP-1 [1]): 1000 to 10000 nM; IC50 (ENPP-1 [2]): < 1000 nM

`COc1ccc2c3c(n(Cc4ccc(S(N)(=O)=O)cc4)c2c1)CCNC3=O` [Compound 42, 4-((7-methoxy-1-oxo-1,2,3,4-tetrahydro-5H-pyrido[4,3-b]indol-5-yl)methyl)benzene sulfonamide] was tested. Which IC50 (ENPP-1 [1]) did it give?
The IC50 was less than 1000 nM.

What about the IC50 (ENPP-1 [2]) of the same compound?
The IC50 was less than 1000 nM.

With `COc1ccc2c3c(=O)[nH]ccc3n(Cc3ccc(S(N)(=O)=O)cc3)c2c1` [Compound 43, 4-((7-methoxy-1-oxo-1,2-dihydro-5H-pyrido[4,3-b]indol-5-yl)methyl)benzenesulfonamide] as the compound, how does the IC50 (ENPP-1 [1]) read?
Its IC50 is 1000 to 10000 nM.

And the IC50 (ENPP-1 [2])?
The IC50 was less than 1000 nM.

`COc1ccc2c(c1)c1c(=O)[nH]ncc1n2Cc1ccc(S(N)(=O)=O)cc1` [Compound 44, 4-((8-methoxy-1-oxo-1,2-dihydro-5H-pyridazino[4,5-b]indol-5-yl)methyl)benzene sulfonamide] was tested. Which IC50 (ENPP-1 [1]) did it give?
The IC50 was less than 1000 nM.

And the IC50 (ENPP-1 [2])?
Its IC50 is less than 1000 nM.

How did the IC50 (ENPP-1 [1]) turn out when `COc1ccc2c3c(=O)[nH]ncc3n(Cc3ccc(S(N)(=O)=O)cc3)c2c1` [Compound 45, 4-((7-methoxy-1-oxo-1,2-dihydro-5H-pyridazino[4,5-b]indol-5-yl)methyl)benzene sulfonamide] was run?
The IC50 was less than 1000 nM.

What about the IC50 (ENPP-1 [2]) of the same compound?
The IC50 was less than 1000 nM.

What does the source list for `COc1ccc2c3c(=O)[nH]ncc3n(Cc3ccc(S(C)(=N)=O)cc3)c2c1` (stereo not drawn) [Compound 46, 7-methoxy-5-(4-(S-methylsulfonimidoyl)benzyl)-2,5-dihydro-1H-pyridazino[4,5-b]indol-1-one]?
IC50 (ENPP-1 [1]): < 1000 nM; IC50 (ENPP-1 [2]): < 1000 nM

Which IC50 (ENPP-1 [1]) does the source give for `COc1ccc2c3cnncc3n(Cc3ccc(S(N)(=O)=O)cc3)c2c1` [Compound 47, 4-((7-methoxy-5H-pyridazino[4,5-b]indol-5-yl)methyl)benzenesulfonamide] here?
The IC50 was 1000 to 10000 nM.

And the IC50 (ENPP-1 [2])?
Its IC50 is less than 1000 nM.

Which results are given for `COc1ccc2c3cncnc3n(Cc3ccc(S(N)(=O)=O)cc3)c2c1` [Compound 48, 4-((7-methoxy-9H-pyrimido[4,5-b]indol-9-yl)methyl)benzenesulfonamide]?
IC50 (ENPP-1 [1]): 1000 to 10000 nM; IC50 (ENPP-1 [2]): < 1000 nM

Which IC50 (ENPP-1 [1]) does the source give for `COc1ccc2c(c1)c1cccnc1n2Cc1ccc(S(N)(=O)=O)cc1` [Compound 49, 4-((6-methoxy-9H-pyrido[2,3-b]indol-9-yl)methyl)benzenesulfonamide] here?
The IC50 was 1000 to 10000 nM.

And the IC50 (ENPP-1 [2])?
Its IC50 is less than 1000 nM.

`COc1ccc2c(c1)c1ncncc1n2Cc1ccc(S(N)(=O)=O)cc1` [Compound 51, 4-((8-methoxy-5H-pyrimido[5,4-b]indol-5-yl)methyl)benzenesulfonamide] was tested. Which IC50 (ENPP-1 [1]) did it give?
The IC50 was less than 1000 nM.

What about the IC50 (ENPP-1 [2]) of the same compound?
The IC50 was less than 1000 nM.

`COc1ccc2c3cnccc3n(Cc3ccc(S(N)(=O)=O)cc3)c2c1` [Compound 52, 4-((7-methoxy-5H-pyrido[4,3-b]indol-5-yl)methyl)benzenesulfonamide] was tested. Which IC50 (ENPP-1 [1]) did it give?
The IC50 was 1000 to 10000 nM.

What about the IC50 (ENPP-1 [2]) of the same compound?
Its IC50 is less than 1000 nM.

What does the source list for `COc1ccc2c3ncccc3n(Cc3ccc(S(N)(=O)=O)cc3)c2c1` [Compound 53, 4-((7-methoxy-5H-pyrido[3,2-b]indol-5-yl)methyl)benzenesulfonamide]?
IC50 (ENPP-1 [1]): < 1000 nM; IC50 (ENPP-1 [2]): < 1000 nM

`COc1cc2c3ncccc3n(Cc3ccc(P(=O)(O)O)cc3)c2cc1F` [Compound 57, (4-((7-fluoro-8-methoxy-5H-pyrido[3,2-b]indol-5-yl)methyl)phenyl)phosphonic acid] was tested. Which IC50 (ENPP-1 [1]) did it give?
Its IC50 is less than 1000 nM.

And the IC50 (ENPP-1 [2])?
The IC50 was less than 1000 nM.

Which IC50 (ENPP-1 [1]) does the source give for `COc1ccc2c(c1)c1ncccc1n2Cc1ccc(C(F)(F)P(=O)(O)O)cc1` [Compound 58, (difluoro (4-((8-methoxy-5H-pyrido[3,2-b]indol-5-yl)methyl)phenyl)methyl)phosphonic acid] here?
Its IC50 is 1000 to 10000 nM.

And the IC50 (ENPP-1 [2])?
Its IC50 is less than 1000 nM.
